Data: patent publication US12247017B2, “Herbicidal uracilpyridines” (BASF SE, priority 2019, dated 2025)

Columns and labels:
Settings in all cases: application rate 16 g/ha, post-emergence method, scale from 0 to 100
AMARE = experiment: greenhouse herbicidal activity, post-emergence, AMARE; assay type: in vivo, Amaranthus retroflexus
Text: (§1) The seeds of the test plants were sown separately for each species. For the pre-emergence treatment, the active ingredients, which had been suspended or emulsified in water, were applied directly after sowing by means of finely distributing nozzles. The containers were irrigated gently to promote germination and growth and subsequently covered with transparent plastic hoods until the test plants had rooted. This cover caused uniform germination of the test plants, unless this had been impaired by the active ingredients. For the post-emergence treatment, the test plants were first grown to a height of 3 to 15 cm, depending on the plant habit, and only then treated with the active ingredients which had been suspended or emulsified in water. For this purpose, the test plants were either sown directly and grown in the same containers, or they were first grown separately as seedlings and transplanted into the test containers a few days prior to treatment. Depending on the species, the test plants were kept at 10-25° C. or 20-35° C., respectively. The test period extended over 2 to 4 weeks. During this time, the test plants were tended, and their response to the individual treatments was evaluated. Evaluation was carried out using a scale from 0 to 100. […]

CHEAL = experiment: greenhouse herbicidal activity, post-emergence, CHEAL; assay type: in vivo, Chenopodium album
Text: as §1

ECHCG = experiment: greenhouse herbicidal activity, post-emergence, ECHCG; assay type: in vivo, Echinocloa crus-galli
Text: as §1

SETVI = experiment: greenhouse herbicidal activity, post-emergence, SETVI; assay type: in vivo, Setaria viridis
Text: as §1

COC(=O)CCNC(=O)C(C)Sc1nc(-n2c(=O)cc(C(F)(F)F)n(C)c2=O)c(F)cc1Cl (stereo not shown) [Example 1, Methyl 3-[2-[[3-chloro-5-fluoro-6-[3-methyl-2,6-dioxo-4-(trifluoromethyl)pyrimidin-1-yl]-2-pyridyl]sulfanyl]propanoylamino]propanoate]
herbicidal activity against AMARE (AMARE): very good herbicidal activity (a very good herbicidal activity is given at values of at least 85) | herbicidal activity against CHEAL (CHEAL): very good herbicidal activity (a very good herbicidal activity is given at values of at least 85) | herbicidal activity against ECHCG (ECHCG): very good herbicidal activity (a very good herbicidal activity is given at values of at least 85) | herbicidal activity against SETVI (SETVI): very good herbicidal activity (a very good herbicidal activity is given at values of at least 85)

CCOC(=O)CCNC(=O)COc1nc(-n2c(=O)cc(C(F)(F)F)n(C)c2=O)c(F)cc1Cl [Example 2]
herbicidal activity against AMARE (AMARE): very good herbicidal activity (a very good herbicidal activity is given at values of at least 85) | herbicidal activity against CHEAL (CHEAL): very good herbicidal activity (a very good herbicidal activity is given at values of at least 85) | herbicidal activity against SETVI (SETVI): very good herbicidal activity (a very good herbicidal activity is given at values of at least 85)
